Experiments:
[1] = tested on: human skin, grafted on immuno-suppressed mice; experiment: Pigmentation of human skin grafted on immuno-suppressed mice; type: in vivo
Method: Human white facial skin samples were grafted on immuno-suppressed mice using standard techniques. About six weeks later grafts of the same individual, grafted on different mice, were treated with vehicle (ethanol: propylene glycol 70:30), or with 50 μM SLIGRL. Treatment was performed daily, 5 days/week. Darkening of the SLIGRL-treated grafts was visually observed during the last weeks of treatment (see FIG. 7A). On day 66, the animals were sacrificed and their skins were analyzed histologically.
The same experiment was repeated with black human breast skin samples grafted on immuno-suppressed mice. Grafts of the same individual were treated with vehicle (GDL liposomes) or with 1% STI. GDL liposomes were prepared as set forth in Niemiec, et al., with the exception of the following changes: the non-ionic liposomal formulation contained glycerol dilaurate (Emulsynt GDL, ISP Van Dyk)/cholesterol (Croda)/polyoxyethylene-10-stearyl ether (Brij76, ICI)/polyoxyethylene-9-lauryl ether, at ratio of 37.5:12.5:33.3:16.7. Hepes buffer, 0.05M, pH 7.4 (Gibco-BRL of Gaithersburg, Md.) was used as the aqueous phase in the preparation of the liposomes.

[2] = tested on: melanocytes; experiment: Fluorescent microsphere ingestion by melanocytes; type: cell-based; conditions: which do not express PAR-2
[3] = tested on: melanocyte cultures plated under epidermal equivalents (EpiDerm); experiment: Pigmentation in equivalent-monolayer co-culture (no K-M contact); type: cell-based; conditions: no keratinocyte-melanocyte contact
Method: Since PAR-2 is expressed in keratinocytes, but not in melanocytes, the possible requirement of keratinocyte-melanocyte contact was tested for the effect of Compound I and SLIGRL on melanosome phagocytosis by the keratinocytes. Primary melanocyte cultures (commercially available from Clonetics, San Diego) were plated under epidermal equivalents (EpiDerm, of MatTek, Ashland, Mass.) to create an equivalent-monolayer co-culture with no contact between keratinocytes and melanocytes. These co-cultures were compared to MelanoDerm equivalents (of MatTek), where melanocytes are present in the basal layer of the equivalent. Cultures were treated with Compound I, with the […], and with the PAR-2 agonist SLIGRL. As set forth in Table 3, keratinocytes are indicated by “K”, melanocytes are indicated by “M”, and lack of keratinocyte-melanocyte contact is indicated as “no K-M cont”. […] The same result was also observed with monolayer keratinocyte/melanocyte co-cultures having keratinocyte/melanocyte contact.

[4] = tested on: fibroblast cell line 92-3T3; experiment: Fluorescent microsphere ingestion by fibroblasts; type: cell-based; conditions: vs untreated fibroblasts; FIG. 3
Method: In this example, human primary keratinocytes or the human keratinocyte cell line HaCaT were used as in vitro model systems to study the effect of PAR-2 regulators on keratinocyte phagocytosis. The human primary keratinocytes used are commercially available from Clonetics (San Diego, Calif.). Cells were plated on chamber slides, at 2 chambers/slide and 60,000 cells/chamber. Cells were treated once daily, for two or three days, with Compound I (1μM), SLIGRL (10μM), or vehicle (Phosphate-buffered saline, (“PBS”) from Gibco-BRL (Gaithersburg, Md.). After two or three days of exposure to the test compounds, cells were exposed to Nile-red or FITC fluorescent microspheres, 1 μm in diameter, 50 microspheres/cell, for two hours at 37° C. Microspheres were from Molecular Probes (Eugene, Oreg.), and were processed according to manufacturer's instructions. Following that treatment, cells were incubated with 15% Fetal Bovine Serum (“FBS”, from Gibco-BRL), for 15 minutes at 37° C. and rinsed with PBS. At that time, chambers were separated from the slides, and the slides were covered with glycerol and coverslips. Fluorescent microscopy was performed using a Zeiss Axiovert 35 or a Nikon Optiphot-2 microscope.
The experiment described in Example 1 was repeated using the fibroblast cell line 92-3T3 (obtained from the ATCC in Rockville, Md.). Fibroblasts are not known to posses phagocytic ability.

[5] = tested on: ICAM-1; experiment: ICAM-1 immuno-precipitation and Western blotting in keratinocytes; type: cell-based; conditions: treated keratinocytes; FIG. 6B
Method: Immuno-precipitation and Western blotting experiments were performed, according to known methods, to assess the level of ICAM-1 protein in treated keratinocytes.

[6] = tested on: human age spots; experiment: Lightening of human age spots, topical treatment; type: in vivo; conditions: STI, 1%, in liposomes (20 mg/ml), twice a day, 8 weeks
Method: An individual with three age spots on the dorsum of […] hand was treated for eight weeks, twice a day, as follows. The proximal age spot was treated with placebo, containing 20 mg/ml of liposomes. The median age spot was not treated. The distal age spot was treated with STI, 1%, in liposomes (20 mg/ml). GDL liposomes were prepared as set forth in Niemiec, et al., with the exception of the following changes. The non-ionic liposomal formulation contained glycerol dilaurate (Emulsynt GDL, ISP Van Dyk)/cholesterol (Croda)/polyoxyethylene-10-stearyl ether (Brij76, ICI)/polyoxyethylene-9-lauryl ether, as at ratio of 37.5:12.5:33.3:16.7. Hepes buffer, 0.05M, pH 7.4 (Gibco-BRL of Gaithersburg, Md.) was used as the aqueous phase in the preparation of the liposomes. UV and visible light digital pictures were taken at times of 0, 4 and 8 weeks of treatment. L* (brightness) values were calculated from the images using Adobe Photoshop.
FIG. 11 is a composite of four pictures. The left panel is a visible light picture of the hand, before (upper) and after (lower) 8 weeks of treatment. At this orientation, the proximal age spot is placebo-treated, the median age spot is untreated, and the distal age spot is STI-treated.

Molecule	visual appearance of grafts ([1]; white facial skin grafts, 50 μM SLIGRL topical daily, 5 days/week, last weeks of treatment, FIG. 7A)	melanin in F&M-stained sections ([1]; white facial skin grafts, 50 μM SLIGRL, day 66, FIG. 7B)	microsphere ingestion [2]	level of pigmentation, Equivalent Monolayer Co-culture (no K-M cont.) [3]	number of ingested beads [4]	level of ICAM-1 protein expression [5]	pigmentation in F&M-stained skin sections ([1]; black breast skin grafts, 1% STI in GDL liposomes, FIG. 7C)	increase in L* (brightness) ([6]; calculated from images)	age spot appearance ([6]; one individual, FIG. 11)
SLIGRL [reference compound]	Darkening	increase in melanin	no inducible effect on microsphere ingestion	no effect	increased the number of ingested beads	increased the level of ICAM-1 expression	–	–	–
CN[C@H](Cc1ccccc1)C(=O)N1CCCC1C(=O)N[C@@H](CCCNC(=N)N)C(=O)c1nc2ccccc2s1 (stereo partly drawn) [Compound I, (S)-N-Methyl-D-phenylalanyl-N-[4-[(aminoiminomethyl)amino]-1-(2-benzothiazolylcarbonyl)butyl]-L-prolinamide]	–	–	–	no effect	–	decreased the level of ICAM-1 expression	–	–	–
STI: Soybean trypsin inhibitor, a serine protease inhibitor capable of affecting the PAR-2 pathway (protein, UniProt P01070 25-205, looked up) Trypsin inhibitor A: DFVLDNEGNPLENGGTYYILSDITAFGGIRAAPTGNERCPLTVVQSRNELDKGIGTIISSPYRIRFIAEGHPLSLKFDSFAVIMLCVGIPTEWSVVEDLPEGPAVKIGENKDAMDGWFRLERVSDDEFNNYKLVFCPQQAEDDKCGDIGISIDHDDGTRRLVVSKNKPLVVQFQKLDKESL	–	–	–	–	–	–	reduce pigmentation in human skin	15 L* units	became lighter

From patent US20020197244A1, “Compositions and methods for regulating phagocytosis and ICAM-1 expression” (priority 1998, published 2002)
